Experimental data from patent US12391737B2, “Soluble NPY2 receptor agonists” (Boehringer Ingelheim International GmbH, priority 2020, dated 2025).

What was measured:
[1] = molecular target: T1, Human Neuropeptide Y2 Receptor (Homo sapiens, UniProt P49146); assay: Radioligand binding competition assay (RLB); settings: Table 3, 125I-PYY(1-36) competition; read-out: Ki
T1 construct: purchased CHEMICON HTS066M
T1 sequence (P49146 1-381): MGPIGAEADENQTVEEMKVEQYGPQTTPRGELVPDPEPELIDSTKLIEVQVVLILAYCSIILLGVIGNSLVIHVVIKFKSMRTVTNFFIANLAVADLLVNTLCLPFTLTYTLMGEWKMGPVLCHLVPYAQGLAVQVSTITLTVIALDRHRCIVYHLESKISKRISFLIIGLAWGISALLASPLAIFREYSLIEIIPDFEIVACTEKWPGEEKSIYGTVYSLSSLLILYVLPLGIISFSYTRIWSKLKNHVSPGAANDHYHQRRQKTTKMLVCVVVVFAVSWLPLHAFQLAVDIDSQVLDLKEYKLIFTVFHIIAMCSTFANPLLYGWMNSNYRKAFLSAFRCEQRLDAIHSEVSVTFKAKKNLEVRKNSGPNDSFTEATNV
Procedure, shortened: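 Displacement of radioligand is measured after 2 h at room temperature with receptor membranes in Mg2+/Ca2+ HEPES buffer, pH 7.4. Filter-bound radioactivity is counted and IC50 obtained from curve fitting.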

[2] = Solubility determination; settings: for Sol6: pH 6; for Sol7: pH 7
Procedure, shortened: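 First, TFA-salt peptide was added to 0.1 M sodium diphosphate (pH 6.4 or 7.0) to 10 mg/ml and shaken 2 h at room temperature. Next, insoluble material was filtered off. Finally, filtrate and control, each 1 mg/ml in 50% acetonitrile, were compared by reversed-phase chromatography.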

| SMILES | Ki [1] [nM] | Sol6 [2] [mg/mL] | Sol7 [2] [mg/mL] |
| --- | --- | --- | --- |
| CC[C@H](C)[C@H](NC(=O)[C@H](CCC(=O)O)NC(=O)[C@H](CCC(=O)O)NC(=O)[C@@H]1CCCN1C(=O)[C@@H](NC(=O)[C@H](C)NC(=O)[C@H](C)NC(=O)[C@H](CCC(=O)O)NC(=O)[C@H](CCC(=O)O)NC(=O)[C@@H]1CCCN1C(=O)[C@H](CCCCNC(=O)CCCCCNC(=O)CC[C@H](NC(=O)CCCCCCCCCCCCCCCCC(=O)O)C(=O)O)NC(=O)[C@H](C)NC(=O)[C@@H]1CCCN1C(=O)[C@H](C)NC(=O)CC(C)C)[C@@H](C)O)C(=O)N[C@@H](CCC(N)=O)C(=O)N[C@@H](CCCNC(=N)N)C(=O)N[C@@H](Cc1ccc(O)cc1)C(=O)N[C@@H](Cc1ccc(O)cc1)C(=O)N[C@H](C(=O)N[C@@H](CO)C(=O)N[C@@H](CC(C)C)C(=O)N[C@@H](CCCNC(=N)N)C(=O)N[C@@H](Cc1c[nH]cn1)C(=O)N[C@@H](Cc1ccc(O)cc1)C(=O)N[C@@H](Cc1ccc(O)cc1)C(=O)N[C@@H](CC(N)=O)C(=O)N[C@@H](Cc1c[nH]c2ccccc12)C(=O)N[C@@H](CC(C)C)C(=O)N[C@H](C(=O)N[C@@H](CCCNC(=N)N)C(=O)N[C@@H](CCC(N)=O)C(=O)N[C@@H](CCCNC(=N)N)C(=O)N[C@@H](Cc1ccc(O)cc1)C(N)=O)[C@@H](C)O)C(C)C [Compound 36, N{alpha-4}-(3-methylbutanoyl)-N{epsilon-7}-(6-[(4S)-4-carboxy-4-(17-carboxyheptadecanamido)butanamido]hexanoyl)[4A,6A,7K,9E,11A,13T,17I,18Q,22V,28Y,30W,31L]-hPYY(4-36)] | 1.25 | 0.0 | 0.4 |
| CC(C)CC(=O)N[C@@H](C)C(=O)N1CCC[C@H]1C(=O)N[C@@H](CCC(=O)O)C(=O)N[C@@H](CCCCNC(=O)CCCCCNC(=O)CC[C@H](NC(=O)CCCCCCCCCCCCCCCCC(=O)O)C(=O)O)C(=O)N1CCC[C@H]1C(=O)N[C@@H](CCC(=O)O)C(=O)N[C@@H](CCC(=O)O)C(=O)N[C@@H](CC(=O)O)C(=O)N[C@@H](C)C(=O)N[C@H](C(=O)N1CCC[C@H]1C(=O)N[C@@H](CCC(=O)O)C(=O)N[C@@H](CCC(=O)O)C(=O)N[C@@H](CC(C)C)C(=O)N[C@@H](CCC(N)=O)C(=O)N[C@@H](CCC(=O)O)C(=O)N[C@@H](Cc1ccc(O)cc1)C(=O)N[C@@H](Cc1ccc(O)cc1)C(=O)N[C@H](C(=O)N[C@@H](CO)C(=O)N[C@@H](CC(C)C)C(=O)N[C@@H](CCCNC(=N)N)C(=O)N[C@@H](Cc1c[nH]cn1)C(=O)N[C@@H](Cc1ccc(O)cc1)C(=O)N[C@@H](Cc1ccc(O)cc1)C(=O)N[C@@H](CC(N)=O)C(=O)N[C@@H](Cc1c[nH]c2ccccc12)C(=O)N[C@@H](CC(C)C)C(=O)N[C@H](C(=O)N[C@@H](CCCNC(=N)N)C(=O)N[C@@H](CCC(N)=O)C(=O)N[C@@H](CCCNC(=N)N)C(=O)N[C@@H](Cc1ccc(O)cc1)C(N)=O)[C@@H](C)O)C(C)C)[C@@H](C)O [Compound 38, N{alpha-4}-(3-methylbutanoyl)-N{epsilon-7}-(6-[(4S)-4-carboxy-4-(17-carboxyheptadecanamido)butanamido]hexanoyl)[4A,7K,9E,13T,18Q,19E,22V,28Y,30W,31L]-hPYY(4-36)] | 12.4 | 10.0 | 10.0 |
